IC50 and remaining activity data for eight compounds are collected here from article PMC9736344, “Discovery of a Novel Bloom’s Syndrome Protein (BLM) Inhibitor Suppressing Growth and Metastasis of Prostate Cancer” (International Journal of Molecular Sciences, 2022).

For test [1], the target named is T1, Bloom's syndrome protein (BLM) helicase (Homo sapiens, UniProt P54132).
T1 construct: BLM 642-1290
Description: fluorescence polarization DNA-binding and unwinding assays, EMSA, malachite green ATPase assay with purified BLM642-1290; CD spectral change. Type of test: biochemical.

Test [2] addresses T1, Bloom's syndrome protein (BLM) helicase. Description: biochemical. The conditions noted are these: dsDNA binding; read-out: % of control remaining. Details: fluorescence polarization; displacement of fluorescein-dsDNA bound to BLM642-1290; relative DNA binding activity. The method, then:
First, fluorescein-labeled dsDNA (2 nM) was added into a reaction buffer (20 mM Tris, 25 mM NaCl, 3 mM MgCl2, 0.1 mM DTT, pH 7.9) to detect the fluorescence anisotropy until it was stable. Then, 500 nM BLM^642−1290 was added to equilibrate the DNA substrate, and the fluorescence anisotropy value was then detected. Finally, small molecules with a concentration of 10 μM were added, and the fluorescence anisotropy value was detected until it was stable. The total reaction volume was adjusted to 150 μL by adjusting with ddH2O volume. The ability of AO/854 to inhibit the ability of the BLM^642−1290 to bind to dsDNA and ssDNA was also assessed using a fluorescence polarization assay. The method used was similar to that described above, except different concentrations of AO/854 were added to the reaction. By using the same protocol, we detected AO/854 affecting DNA unwinding of BLM^642−1290. The 0–50 μM concentrations of AO/854 were added to the reaction. In the final step, 0.2 mM of ATP was added to the reaction. The fluorescence anisotropy value was detected until it was stable. The inhibiting ratio of BLM on DNA binding activity and DNA unwinding activity was determined. By using high-throughput virtual and protein-based screening assays, we discovered an isobenzofuranone compound with the desired properties. The flow chart of our work is as follows (Figure 2A). Before the first round of docking using the Autodock Vina, an optimized database (approximately 200,000 compounds) was achieved by filtering using Lipinski’s rule of five and Veber rules and removing duplicate molecules from the Specs database (Figure S1). The top 1000 compounds from the previous step were docked with Autodock (Figure S2). The top 30 small molecules (Table S1) obtained through virtual screening were dissolved in DMSO and prepared into mother liquor at a concentration of 20 mM. We purified a truncated structure of BLM that retained helicase activity in vitro (Figure S3), selected a fluorescein-labeled dsDNA as a substrate, and used a fluorescence polarization assay to determine if the promising compounds disrupted the binding between BLM and DNA.

T1 sequence (P54132 642-1290): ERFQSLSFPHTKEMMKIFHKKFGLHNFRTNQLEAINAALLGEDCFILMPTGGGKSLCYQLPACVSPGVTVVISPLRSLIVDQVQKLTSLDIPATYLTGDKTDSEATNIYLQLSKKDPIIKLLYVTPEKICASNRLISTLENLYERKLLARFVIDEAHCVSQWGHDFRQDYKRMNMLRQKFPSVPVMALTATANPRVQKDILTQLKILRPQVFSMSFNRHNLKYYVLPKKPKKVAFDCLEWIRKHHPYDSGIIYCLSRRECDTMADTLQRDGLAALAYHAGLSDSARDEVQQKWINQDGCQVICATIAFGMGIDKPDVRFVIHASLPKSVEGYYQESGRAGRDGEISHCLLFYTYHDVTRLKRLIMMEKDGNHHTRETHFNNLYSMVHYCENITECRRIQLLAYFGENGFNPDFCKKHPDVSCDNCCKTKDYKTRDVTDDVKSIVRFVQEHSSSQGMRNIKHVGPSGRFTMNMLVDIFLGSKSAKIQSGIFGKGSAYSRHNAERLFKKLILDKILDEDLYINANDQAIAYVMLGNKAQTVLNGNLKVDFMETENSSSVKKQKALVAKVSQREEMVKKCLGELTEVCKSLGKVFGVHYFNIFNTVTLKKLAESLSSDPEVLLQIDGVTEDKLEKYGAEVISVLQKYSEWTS

By IC50 is commonly meant the concentration at which inhibition is half-maximal. Low values mean greater potency, high ones weaker potency. Compound `Cc1cc(C2(c3ccc(O)c(C)c3)OC(=O)c3ccccc32)ccc1O` [AO/854, AO/854/43447428] came in with a half-maximal inhibitory concentration (IC50) in test [1] of less than 10 µM.
For `O=[N+]([O-])c1ccc(S(=O)(=O)Oc2ccc(C3(c4ccc(OS(=O)(=O)c5ccc([N+](=O)[O-])cc5)cc4)c4ccccc4-c4ccccc43)cc2)cc1` [compound 1], the remaining activity at 10 µM in test [2] came to 98.9%.
As for `Cc1cc(C2(c3ccc(O)c(C)c3)OC(=O)c3ccccc32)ccc1O` [compound 2], the remaining activity at 10 µM in test [2] came to 31.5%.
The same measure, in the same setting: for `Cc1ccc(-c2csc3nc(SCC(=O)Nc4cccc5ccccc45)n(-c4ccccc4)c(=O)c23)o1` [compound 3] the value was 94.9%.
For the compound `CCCCC(OC(=O)c1ccc(N2C(=O)C3C4c5ccccc5C(c5ccccc54)C3C2=O)cc1)C(=O)c1ccc(-c2ccccc2)cc1` (centres unmarked) [compound 10], the remaining activity at 10 µM in test [2] stood at 103%.
On to `Cc1ccc(-c2csc3nc(SCC(=O)Nc4ccc(C)c(C)c4)n(-c4ccccc4)c(=O)c23)o1` [compound 19], for which the remaining activity at 10 µM in test [2] is 93.9%.
Still for that read-out and setting: the value for `O=C1c2cc(S(=O)(=O)Nc3cccc4ccccc34)ccc2-c2ccc(S(=O)(=O)Nc3cccc4ccccc34)cc21` [compound 20] was 96.6%.
For the compound `CC(=O)Nc1ccc(N2C(=O)c3ccc(C(=O)c4ccc5c(c4)C(=O)N(c4ccc(NC(C)=O)cc4)C5=O)cc3C2=O)cc1` [compound 28], the remaining activity at 10 µM in test [2] came out at 97.3%.
